Assay results taken from BigSolDB 2.1.

O=C(NNC(=S)Nc1ccc(Cl)cc1)c1ccncc1
Settings	solubility (mole fraction)
in PEG-400, 298.15 K	0.108
in PEG-400, 308.15 K	0.114
in PEG-400, 318.15 K	0.12
in PEG-400, 328.15 K	0.126
in PEG-400, 338.15 K	0.131

solubility (mole fraction)
Settings	298.15 K	308.15 K	318.15 K	328.15 K	338.15 K
in ethanol	0.000647	0.000693	0.000743	0.000792	0.000834
in ethylene glycol	0.0077	0.00841	0.00894	0.00961	0.0104
in isopropanol	0.00113	0.00121	0.00121	0.00129	0.00138
in propylene glycol	0.00738	0.00789	0.00848	0.00909	0.00987
